Values belong to the compound of their own block, whether it stands above or below them.
How the values were obtained:
[1] = Lipophilicity, log D of the compound; type: physicochemical; details: octanol/water
[2] = Clearance in human hepatocytes assessed per 10^6 cells; type: ADME, cell-based, Hepatocyte; details: read-out: CLH
MDR1 [3] = assay: Apparent permeability from apical to basolateral side of MDCK2 cells expressing human MDR1 at 10 uM; type: ADME, cell-based, Canis lupus familiaris, MDCK-II; details: dog, MDCK-MDR1
MDR1 [4] = assay: Apparent permeability from basolateral to apical side of MDCK2 cells expressing human MDR1 at 10 uM; type: ADME, cell-based, Canis lupus familiaris, MDCK-II; details: dog, MDCK-MDR1
[5] = Clearance in rat at 4 umol/kg, iv; type: ADME, organism-based; details: in vivo
[6] = Oral bioavailability in rat; details: in vivo
[7] = Clearance in CD1 mouse at 10 umol/kg, iv; type: ADME, organism-based; details: in vivo
[8] = Oral bioavailability in CD1 mouse at 20 umol/kg; type: ADME, organism-based; details: in vivo
[9] = Clearance in rat at 1 umol/kg, iv; type: ADME, organism-based; details: in vivo
[10] = Oral bioavailability in rat at 6 umol/kg; type: ADME, organism-based; details: in vivo

SMILES: C[C@@H]1CN(c2nc(N3CCOC[C@@H]3C)c3ncc(-c4ccccc4)nc3n2)C[C@H](C)O1
logD [1]: > 4

SMILES: CNC(=O)c1cc(-c2ccc3c(N4CCOC[C@@H]4C)nc(N4CCOC[C@@H]4C)nc3n2)ccc1OC(F)F
hepatocyte CLint [2]: 14.9 µL/min/1e6 cells

SMILES: C[C@H]1COCCN1c1nc(N2CCOC[C@@H]2C)c2ccc(-c3ccc4nc[nH]c(=O)c4c3)nc2n1
hepatocyte CLint [2]: 176 µL/min/1e6 cells

SMILES: C[C@H]1COCCN1c1nc(N2CCOC[C@@H]2C)c2ccc(-c3cccc(C(=O)NCCO)c3)nc2n1
hepatocyte CLint [2]: < 5.4 µL/min/1e6 cells

SMILES: CNC(=O)c1cccc(-c2ccc3c(N4CCOC[C@@H]4C)nc(N4CCOC[C@@H]4C)nc3n2)c1 [VISTUSERTIB]
hepatocyte CLint [2]: < 4.2 µL/min/1e6 cells
clearance [5]: 12.6 mL/min/kg
bioavailability [6]: 40%
logD [1]: 3.16
clearance [7]: 10.4 mL/min/kg
bioavailability [8]: > 100%

Second part, the compound after the results:

hepatocyte CLint [2]: 37.8 µL/min/1e6 cells
SMILES: COc1ccc(-c2ccc3c(N4CCOC[C@@H]4C)nc(N4CCOC[C@@H]4C)nc3n2)cc1C(C)O (some centres undefined)

hepatocyte CLint [2]: 33.2 µL/min/1e6 cells
SMILES: COc1ccc(-c2ccc3c(N4CCOC[C@@H]4C)nc(N4CCOC[C@@H]4C)nc3n2)cc1C(N)=O

hepatocyte CLint [2]: 14.3 µL/min/1e6 cells
SMILES: CNC(=O)c1cc(-c2ccc3c(N4CCOC[C@@H]4C)nc(N4CCOC[C@@H]4C)nc3n2)ccc1OC

hepatocyte CLint [2]: 4.3 µL/min/1e6 cells
SMILES: COc1ccc(-c2ccc3c(N4CCOC[C@@H]4C)nc(N4CCOC[C@@H]4C)nc3n2)cc1C(=O)N(C)C

Papp A→B at 10 µM (MDR1 [3]): 45.3 ×10⁻⁶ cm/s
Papp B→A at 10 µM (MDR1 [4]): 16.6 ×10⁻⁶ cm/s
SMILES: COc1ccc(-c2ccc3c(N4CCOCC4)nc(N4C[C@@H](C)O[C@@H](C)C4)nc3n2)cc1CNCCO

logD [1]: 3.75
SMILES: C[C@@H]1CN(c2nc(N3CCOC[C@@H]3C)c3ccc(-c4ccccc4)nc3n2)C[C@H](C)O1

hepatocyte CLint [2]: 36.4 µL/min/1e6 cells
clearance [5]: 36.6 mL/min/kg
bioavailability [6]: 12%
logD [1]: 3.23
clearance [7]: 42.8 mL/min/kg
bioavailability [8]: 81%
SMILES: COc1ccc(-c2ccc3c(N4CCOC[C@@H]4C)nc(N4CCOC[C@@H]4C)nc3n2)cc1CO [AZD-8055]

clearance [9]: 35.8 mL/min/kg
bioavailability [10]: 33%
Papp A→B at 10 µM (MDR1 [3]): 2.6 ×10⁻⁶ cm/s
clearance [7]: 3.1 mL/min/kg
bioavailability [8]: 61%
Papp B→A at 10 µM (MDR1 [4]): 15 ×10⁻⁶ cm/s
SMILES: COc1ccc(-c2ccc3c(N4CCOCC4)nc(N4C[C@@H](C)O[C@@H](C)C4)nc3n2)cc1CO [Ku-0063794]
